# According to the RepoRT retention time repository (doi:10.1016/j.jhazmat.2019.121712):
# Assay: Thermo Scientific Acclaim RSLC 120 C18, 100 × 2.1 mm, 2.2 µm, 30 °C; A: 90% water + 10% methanol + 0.01% formic acid + 5 mM ammonium formate; B: methanol + 0.01% formic acid + 5 mM ammonium formate; gradient (min/%B) 0.1/1 3/39 14/99.9 16/99.9
# Conditions: stereoisomer not certain
row,SMILES,LC retention time
1,CCN(CC)CCOC(=O)C(O)(c1ccccc1)c1ccccc1,6.08 min
2,COC(=O)Nc1nc2ccc(C(=O)c3ccccc3)cc2[nH]1,8.25 min
3,COc1cc2c(cc1OC)C(=O)C(CC1CCN(Cc3ccccc3)CC1)C2 (stereo unspecified),5.81 min
4,CCCCCn1cc(C(=O)Oc2cccc3cccnc23)c2ccccc21,11.9 min
5,C=CC=CCC1=C(C)C(OC(=O)C2C(C=C(C)C(=O)OC)C2(C)C)CC1=O (stereo unspecified),11.7 min
6,CC1(C)SC2C(NC(=O)C(N)c3ccccc3)C(=O)N2C1C(=O)O (stereo unspecified),4.21 min
7,CC(C)(C)NCC(O)COc1ccc(NC(=O)NC2CCCCC2)cc1 (stereo unspecified),6.58 min
8,CC(C)Cc1ccc(C(C)C(=O)O)cc1 (stereo unspecified),10.7 min
9,C#CC[N+](C)([O-])C(C)Cc1ccccc1 (stereo unspecified),5.33 min
10,CC(CN(C)C)CN1c2ccccc2Sc2ccc(C#N)cc21 (stereo unspecified),7.52 min
11,COP(=O)(OC)Oc1ccc([N+](=O)[O-])cc1,6.36 min
12,CC(O)Cn1cnc2c1c(=O)n(C)c(=O)n2C (stereo unspecified),4.34 min
13,O=C1CN=C(c2ccccc2)c2c(sc3c2CCCC3)N1,9.49 min
14,COC(=O)C1C(O)CC2CCC1N2C (stereo unspecified),1.38 min
15,NC(=O)N1c2ccccc2CC(O)c2ccccc21 (stereo unspecified),5.94 min
16,COP(=O)(OC)Oc1ccc(SC)c(C)c1,8.82 min
17,CC12CCC(=O)C=C1CCC1C2CCC2(C)C(C(=O)CO)CCC12 (stereo unspecified),13.7 min
18,CC(C(=O)c1ccccc1)N(C)C (stereo unspecified),3.64 min
19,CCC(C)OC(=O)N1CCCCC1CCO (stereo unspecified),8.83 min
20,CN(C)NC(=O)CCC(=O)O,6.28 min
21,CN1CSC(=S)N(C)C1,3.97 min
22,CCOC(=O)N(C)C(=O)CSP(=S)(OCC)OCC,10.2 min
23,CCN(CC)CC(=O)Nc1c(C)cccc1C,4.54 min
24,Cc1ccccc1C(OCCN(C)C)c1ccccc1 (stereo unspecified),7.44 min

row,SMILES,LC retention time
1,CC(C)N(CCC(C(N)=O)(c1ccccc1)c1ccccn1)C(C)C (stereo unspecified),4.74 min
2,Cn1c(=O)c2c(ncn2C)n(C)c1=O,4.23 min
3,CCOP(=O)(NC(C)C)Oc1ccc(SC)c(C)c1 (stereo unspecified),10.4 min
4,CCN(C)C(=O)Oc1cccc(C(C)N(C)C)c1 (stereo unspecified),4.74 min
5,CCCCN1CCCCC1C(=O)Nc1c(C)cccc1C (stereo unspecified),6.18 min
6,CCOC(=O)c1ccccc1C(=O)OCC,8.5 min
7,NC(=O)N1c2ccccc2C2OC2c2ccccc21 (stereo unspecified),6.04 min
8,CN1CCC(=C2c3ccccc3CCc3cccnc32)CC1,5.99 min
9,CN(C)CCC(c1ccccc1)c1ccccn1 (stereo unspecified),4.98 min
10,O=c1[nH]c2ccccc2n1CCCN1CCN(C(c2ccccc2)c2ccccc2)CC1,8.42 min
11,COCCOc1ccccc1S(=O)(=O)NC(=O)Nc1nc(OC)nc(OC)n1,6.36 min
12,Nc1nc(N)c2nc(-c3ccccc3)c(N)nc2n1,4.68 min
13,CN(C)CCc1c[nH]c2ccc(O)cc12,2.82 min
14,CN1C2CCC1CC(OC(=O)C(O)c1ccccc1)C2 (stereo unspecified),3.73 min
15,Nc1c2c(nc3ccccc13)CCCC2,4.77 min
16,CCCCCn1cc(C(=O)Nc2cccc3ccccc23)c2ccccc21,11.7 min
17,NC(=O)C1CCNCC1,1.26 min
18,CCOP(=S)(OCC)SCSC(C)(C)C,12.2 min
19,CNC(=C[N+](=O)[O-])NCCSCc1csc(CN(C)C)n1,2.96 min
20,CCN(CC)CCOC(=O)C1(C2CCCCC2)CCCCC1,9.99 min
21,CCCCNC(=O)NS(=O)(=O)c1ccc(N)cc1,5.36 min
22,CSc1nc(N)nc(NC(C)(C)C)n1,8.43 min
23,CCC(=O)C1(c2cccc(O)c2)CCN(C)CC1,4.26 min
24,COc1cnc(NS(=O)(=O)c2ccc(N)cc2)nc1,4.18 min

row,SMILES,LC retention time
1,CC(=O)Nc1ccc(S(=O)(=O)Nc2cc(C)on2)cc1,5.28 min
2,COc1ccc(NS(=O)(=O)c2ccc(N)cc2)nn1,4.38 min
3,CCCn1c(C)c(C(=O)c2cccc3ccccc23)c2ccccc21,11.5 min
4,CCCCN(CC)C(=O)SCCC,11.5 min
5,Cc1cccc(Nc2ccccc2C(=O)O)c1C,11.6 min
6,COC1C=COC2(C)Oc3c(C)c(O)c4c(O)c(c5c(nc6cc(C)ccn65)c4c3C2=O)NC(=O)C(C)=CC=CC(C)C(O)C(C)C(O)C(C)C(OC(C)=O)C1C (stereo unspecified),10.1 min
7,CNC(C)C(=O)c1ccc(OC)cc1 (stereo unspecified),4.16 min
8,COc1ccc(C(=O)c2c(C)n(CCN3CCOCC3)c3ccccc23)cc1,9.55 min
9,CN(C)CCCN1c2ccccc2Sc2ccccc21,7.69 min
10,C=CCN1CCCC1CNC(=O)c1cc2n[nH]nc2cc1OC (stereo unspecified),3.62 min
11,CCN(CC)C(=O)C1(c2ccccc2)CC1CN (stereo unspecified),5.73 min
12,Cc1onc(-c2ccccc2)c1-c1ccc(S(N)(=O)=O)cc1,7.37 min
13,CCCc1nn(C)c2c(=O)[nH]c(-c3cc(C(C)=O)ccc3OCC)nc12,9.81 min
14,Cc1nnc(NS(=O)(=O)c2ccc(N)cc2)s1,4.21 min
15,CC(CCc1ccccc1)NCC(O)c1ccc(O)c(C(N)=O)c1 (stereo unspecified),5.74 min
16,CCCOP(=S)(OCCC)OP(=S)(OCCC)OCCC,12.9 min
17,CNC1C(OC2C(OC3C(O)C(O)C(N=C(N)N)C(O)C3N=C(N)N)OC(C)C2(O)CO)OC(CO)C(O)C1O (stereo unspecified),1.26 min
18,c1ccc(C2(N3CCCCC3)CCCCC2)cc1,5.74 min
19,CCN(CCO)CCn1c(Cc2ccccc2)nc2c1c(=O)n(C)c(=O)n2C,5.24 min
20,N=C(N)N1CCc2ccccc2C1,4.39 min
21,CNCCC(Oc1ccccc1C)c1ccccc1 (stereo unspecified),7.63 min
22,CCCCOc1ccc(C(=O)OCCN(CC)CC)cc1,11.3 min
23,O=C(O)CCCCn1cc(C(=O)c2cccc3ccccc23)c2ccccc21,9.71 min
24,COc1nc(C)nc(N)n1,3.71 min

row,SMILES,LC retention time
1,CC1=C(C(=O)O)N2C(=O)C(NC(=O)C(N)c3ccc(O)cc3)C2SC1 (stereo unspecified),2.84 min
2,CNC(=O)ON=C(CSC)C(C)(C)C,7.8 min
3,CC12CCC3C4CCC(=O)C=C4CCC3C1CCC2O (stereo unspecified),9.37 min
4,CCCc1nc(C)c2c(=O)[nH]c(-c3cc(C(=O)CN4CCN(CC)CC4)ccc3OCC)nn12,7.16 min
5,COC(=O)NS(=O)(=O)c1ccc(N)cc1,3.41 min
6,CCN(CC)CCNC(=O)COc1ccc(OC)cc1,4.31 min
7,CN(C)CCc1ccc(O)cc1,2.28 min
8,COc1ccc(C(C[N+](C)(C)[O-])C2(O)CCCCC2)cc1 (stereo unspecified),6.94 min
9,COc1ccc2cccc(CCNC(C)=O)c2c1,8.68 min
10,O=C1NC(=O)C(c2ccccc2)(c2ccccc2)N1,7.08 min
11,CNC(=O)Oc1ccccc1C1OCCO1,5.16 min
12,CCOc1nc2cccc(C(=O)O)c2n1Cc1ccc(-c2ccccc2-c2nn[nH]n2)cc1,7.93 min
13,CC(CCN1CCOCC1)OC(=O)C1(c2ccccc2)CCOCC1 (stereo unspecified),6.12 min
14,CCOC(=O)C1(c2ccccc2)CCN(C)CC1,5.28 min
15,CNCCN1C(=O)C(OC(C)=O)C(c2ccc(OC)cc2)Sc2ccccc21 (stereo unspecified),7.21 min
16,CCOP(=O)(OCC)Oc1cc(C)nc(C(C)C)n1,8.65 min
17,CC(Cc1ccccc1)NCCC#N (stereo unspecified),4.14 min
18,CN(C)c1ccccc1,6.26 min
19,CCCN1CCCCC1C(=O)Nc1c(C)cccc1C (stereo unspecified),5.39 min
20,CC1CCCCC1NC(=O)Nc1ccccc1 (stereo unspecified),9.37 min
21,CN1CCc2cccc3c2C1Cc1ccc(O)c(O)c1-3 (stereo unspecified),4.28 min
22,CN(C)CCCN1c2ccccc2Sc2cccnc21,7.21 min
23,Nc1nc(N)nc(N)n1,1.45 min
24,O=C(c1cccc2ccccc12)c1cn(CCN2CCOCC2)c2ccccc12,9.88 min

row,SMILES,LC retention time
1,CC(=O)OCC(=O)C1(O)CCC2C3CCC4=CC(=O)CCC4(C)C3C(O)CC21C (stereo unspecified),8.8 min
2,Cc1ncc([N+](=O)[O-])n1CCO,3.58 min
3,COC1C(OC(N)=O)C(O)C(Oc2ccc3c(O)c(NC(=O)c4ccc(O)c(CC=C(C)C)c4)c(=O)oc3c2C)OC1(C)C (stereo unspecified),11.2 min
4,NC(=O)N1c2ccccc2C=Cc2ccccc21,7.36 min
5,CC(COc1ccc(Oc2ccccc2)cc1)Oc1ccccn1 (stereo unspecified),12.6 min
6,Nc1cc(-c2ccncc2)c[nH]c1=O,2.88 min
7,CC1CC2C(C(O)CC3(C)C2CCC3(O)C(=O)CO)C2(C)C=CC(=O)C=C12 (stereo unspecified),8.75 min
8,CC1COCc2cc3c(cc21)C(C)(C)C(C)C3(C)C (stereo unspecified),13.9 min
9,CN(C)CC(CN1c2ccccc2Sc2ccccc21)N(C)C (stereo unspecified),8.54 min
10,CCCC(Cc1ccccc1)N1CCCC1 (stereo unspecified),5.56 min
11,COc1cc(CNC(=O)CCCCC=CC(C)C)ccc1O,9.83 min
12,Cc1c(N(C)C)c(=O)n(-c2ccccc2)n1C,5.21 min
13,COc1cc(CCN)c(OC)cc1C,5.34 min
14,CNC(=O)Oc1cccc2c1OC(C)(C)C2O (stereo unspecified),5.09 min
15,CNCC(O)c1cccc(O)c1 (stereo unspecified),1.93 min
16,CCNCC(=O)Nc1c(C)cccc1C,4.33 min
17,CCC=CCC1=C(C)C(OC(=O)C2C(C=C(C)C(=O)OC)C2(C)C)CC1=O (stereo unspecified),12.2 min
18,COc1cc(OC)nc(NC(=O)NS(=O)(=O)c2cc(NC=O)ccc2C(=O)N(C)C)n1,7.54 min
19,CC(Cc1ccccc1)NCCn1cnc2c1c(=O)n(C)c(=O)n2C (stereo unspecified),5.06 min
20,CCCc1nn(C)c2c(=O)[nH]c(-c3cc(C(=O)CN4CCN(CC)C(=O)C4=O)ccc3OCC)nc12,8.18 min
